Experimental findings from ChEMBL document CHEMBL5550123, “Discovery of novel pyridone-benzamide derivatives possessing a 1-methyl-2-benzimidazolinone moiety as potent EZH2 inhibitors for the treatment of B-cell lymphomas” (Bioorg Med Chem, 2024) are described below.

For one data set, the system named is KARPAS-422. Briefly: Antiproliferative activity against human KARPAS-422 cells assessed as inhibition of cell growth measured after 72 hrs by CCK-8 method. Type of data set: functional, cell-based. Particulars: KARPAS-422, 72 h.
Data set [1] is described as follows: Inhibition of EZH2 Y641F mutant (unknown origin) preincubated for 15 mins followed by substrate addition and measured after 45 mins by AlphaLISA assay. On the set-up: species or system Homo sapiens. In general terms: Alpha assays give light when donor and acceptor beads are brought close together.
Data set [2] can be described thus: Metabolic stability in human liver microsomes assessed as half life at 1 uM measured upto 60 mins in presence of NADPH by LC-MS/MS analysis. The format is ADME, Microsome.
A short description of data set [3]: Inhibition of EZH2 Y641N mutant (unknown origin) preincubated for 15 mins followed by substrate addition and measured after 45 mins by AlphaLISA assay. Set-up: species or system Homo sapiens.
Data set [4] is described as follows: Metabolic stability in human liver microsomes assessed as intrinsic clearance at 1 uM measured upto 60 mins in presence of NADPH by LC-MS/MS analysis. The format is ADME, Microsome. Particulars: read-out: CLH. For orientation: Microsomes from liver hold many membrane-bound enzymes, among them those of drug oxidation.

Molecules are shown by their SMILES.

For the compound `CCC(=O)N1CCC(n2c(=O)n(C)c3cc(-c4cc(C(=O)NCc5c(C)cc(C)[nH]c5=O)c(C)c(N(CC)C5CCOCC5)c4)ccc32)CC1`, the IC50 in the data set with KARPAS-422 was determined as 37.7 nM. On to `CCN1CC(n2c(=O)n(C)c3ccc(-c4cc(C(=O)NCc5c(C)cc(C)[nH]c5=O)c(C)c(N(CC)C5CCOCC5)c4)cc32)C1`, for which the half-inhibitory concentration (IC50) in the data set on KARPAS-422 turned out to be 52.9 nM. With `CCN(c1cc(-c2ccc3c(c2)n(C)c(=O)n3C2CCN(C(C)=O)CC2)cc(C(=O)NCc2c(C)cc(C)[nH]c2=O)c1C)C1CCOCC1`, the IC50 in the data set with KARPAS-422 was found to be 85.8 nM. Same read-out and setting: under `CCN(c1cc(-c2ccc3c(c2)n(C)c(=O)n3C2CCN(CC#N)CC2)cc(C(=O)NCc2c(C)cc(C)[nH]c2=O)c1C)C1CCOCC1` stands 53.8 nM; under `CCN(c1cc(-c2ccc3c(c2)n(C)c(=O)n3C2CCN(C)CC2)cc(C(=O)NCc2c(C)cc(C)[nH]c2=O)c1C)C1CCN(C(C)=O)CC1`, 105 nM. As to `CCN(c1cc(-c2ccc(CN3CCOCC3)cc2)cc(C(=O)NCc2c(C)cc(C)[nH]c2=O)c1C)C1CCOCC1` [TAZEMETOSTAT], the IC50 was 35 nM in the data set with KARPAS-422, 0.37 nM in data set [1] and 0.85 nM in data set [3]. Besides, in data set [2], the half-life at 1 µM is 0.133 h. In addition, the microsomal CLint at 1 µM in data set [4] amounted to 174 µL/min/mg. In the case of `CCN(c1cc(-c2ccc3c(c2)n(C)c(=O)n3C2CCN(CC3CC3)CC2)cc(C(=O)NCc2c(C)cc(C)[nH]c2=O)c1C)C1CCOCC1`, the IC50 in the data set on KARPAS-422 turned out to be 24.6 nM.

For `CCN(c1cc(-c2ccc3c(c2)n(C)c(=O)n3C2CCN(S(C)(=O)=O)CC2)cc(C(=O)NCc2c(C)cc(C)[nH]c2=O)c1C)C1CCOCC1`, in the data set with KARPAS-422, the IC50 stood at 68.4 nM.

As to `CCN(c1cc(-c2ccc3c(c2)n(CC)c(=O)n3C2CCOCC2)cc(C(=O)NCc2c(C)cc(C)[nH]c2=O)c1C)C1CCOCC1`, in the data set with KARPAS-422, the IC50 was determined as 62.5 nM. `CCN(c1cc(-c2ccc3c(c2)n(C)c(=O)n3C2CN(CC#N)C2)cc(C(=O)NCc2c(C)cc(C)[nH]c2=O)c1C)C1CCOCC1`: in the data set on KARPAS-422, the IC50 stood at 58.2 nM.

Regarding `CCN(c1cc(-c2ccc3c(c2)n(C)c(=O)n3C2CCN(C(=O)C3CC3)CC2)cc(C(=O)NCc2c(C)cc(C)[nH]c2=O)c1C)C1CCOCC1`, in the data set with KARPAS-422, the IC50 worked out at 27.8 nM. Still for that read-out and setting: under `CCN(c1cc(-c2ccc3c(c2)n(C2CN(C4COC4)C2)c(=O)n3C)cc(C(=O)NCc2c(C)cc(C)[nH]c2=O)c1C)C1CCOCC1` stands 154 nM; under `CCN(c1cc(-c2ccc3c(c2)n(C)c(=O)n3C2CN(CC(F)F)C2)cc(C(=O)NCc2c(C)cc(C)[nH]c2=O)c1C)C1CCOCC1`, 45.6 nM. `CCN(c1cc(-c2ccc3c(c2)n(C)c(=O)n3C2CCN(C)CC2)cc(C(=O)NCc2c(C)cc(C)[nH]c2=O)c1C)C1CCOCC1`: the IC50 with KARPAS-422 came out at 18.4 nM. Same read-out and setting: under `CCN(C)C1CCC(N(CC)c2cc(-c3ccc4c(c3)n(C)c(=O)n4C3CCN(C)CC3)cc(C(=O)NCc3c(C)cc(C)[nH]c3=O)c2C)CC1` (stereo not given) stands 26.4 nM; under `CCN(c1cc(-c2ccc3c(c2)n(C)c(=O)n3C2CCOCC2)cc(C(=O)NCc2c(C)cc(C)[nH]c2=O)c1C)C1CCOCC1`, 49.5 nM; under `CCN(c1cc(-c2ccc3c(c2)n(C)c(=O)n3C2CCN(CC(F)(F)F)CC2)cc(C(=O)NCc2c(C)cc(C)[nH]c2=O)c1C)C1CCOCC1`, 52.8 nM. Still for that read-out and setting: for `CCN(c1cc(-c2ccc3c(c2)n(C)c(=O)n3CCOC)cc(C(=O)NCc2c(C)cc(C)[nH]c2=O)c1C)C1CCOCC1` the value was 60.8 nM; for `CCN(c1cc(-c2ccc3c(c2)n(C2CCOCC2)c(=O)n3C)cc(C(=O)NCc2c(C)cc(C)[nH]c2=O)c1C)C1CCOCC1`, 29.9 nM; for `CCN(c1cc(-c2ccc3c(c2)n(C2CN(C)C2)c(=O)n3C)cc(C(=O)NCc2c(C)cc(C)[nH]c2=O)c1C)C1CCOCC1`, 43.5 nM. Still for that read-out and setting: for `CCN(c1cc(-c2ccc3c(c2)n(C2CCN(C)CC2)c(=O)n3C)cc(C(=O)NCc2c(C)cc(C)[nH]c2=O)c1C)C1CCOCC1` the value was 26.3 nM; for `CCN(c1cc(-c2ccc3c(c2)n(C)c(=O)n3C2COC2)cc(C(=O)NCc2c(C)cc(C)[nH]c2=O)c1C)C1CCOCC1`, 57.4 nM. Consider `CCN(c1cc(-c2ccc3c(c2)n(C)c(=O)n3C2CN(C)C2)cc(C(=O)NCc2c(C)cc(C)[nH]c2=O)c1C)C1CCOCC1`, for which, in the data set on KARPAS-422, the IC50 is 29.3 nM. Take `CCN(c1cc(-c2ccc3c(c2)n(C)c(=O)n3C2CCN(C)CC2)cc(C(=O)NCc2c(C)cc(C)[nH]c2=O)c1C)C1CCC(N(C)CCOC)CC1` (stereo not given): the IC50 is 9.63 nM in the data set with KARPAS-422, 0.14 nM in data set [1] and 0.17 nM in data set [3]. Further, in data set [2], the half-life at 1 µM was determined as 2.46 h. In data set [4], the microsomal CLint at 1 µM was determined as 9.38 µL/min/mg.

Regarding `CCN1CCC(n2c(=O)n(C)c3ccc(-c4cc(C(=O)NCc5c(C)cc(C)[nH]c5=O)c(C)c(N(CC)C5CCOCC5)c4)cc32)CC1`, the half-maximal inhibitory concentration (IC50) with KARPAS-422 was 32.8 nM. The same measure, in the same setting: for `CCN(c1cc(-c2ccc3c(c2)n(C)c(=O)n3C2CCN(C)CC2)cc(C(=O)NCc2c(C)cc(C)[nH]c2=O)c1C)C1CCN(CC2CC2)CC1` the value was 159 nM; for `CCN(c1cc(-c2ccc3c(c2)n(C)c(=O)n3C2CCN(C3COC3)CC2)cc(C(=O)NCc2c(C)cc(C)[nH]c2=O)c1C)C1CCOCC1`, 25.5 nM. The same measure, in the same setting: under `CCN(c1cc(-c2ccc3c(c2)n(C)c(=O)n3C2CCN(C)CC2)cc(C(=O)NCc2c(C)cc(C)[nH]c2=O)c1C)C1CCN(C)CC1` stands 173 nM; under `CCN(c1cc(-c2ccc3c(c2)n(C)c(=O)n3C2CCN(C)CC2)cc(C(=O)NCc2c(C)cc(C)[nH]c2=O)c1C)C1CCN(C2COC2)CC1`, 219 nM. `CCN(c1cc(-c2ccc3c(c2)n(C)c(=O)n3C2CN(C(=O)C3CC3)C2)cc(C(=O)NCc2c(C)cc(C)[nH]c2=O)c1C)C1CCOCC1`: the IC50 with KARPAS-422 was 31.2 nM. Consider `CCN(c1cc(-c2ccc3c(c2)[nH]c(=O)n3C2CCOCC2)cc(C(=O)NCc2c(C)cc(C)[nH]c2=O)c1C)C1CCOCC1`, for which the IC50 with KARPAS-422 is 51.2 nM. Take `CCN(c1cc(-c2ccc3c(c2)n(C)c(=O)n3C2CCN(C)CC2)cc(C(=O)NCc2c(C)cc(C)[nH]c2=O)c1C)C1CCC(N(C)C2COC2)CC1` (stereo not given): the IC50 in the data set on KARPAS-422 turned out to be 23.2 nM.

Regarding `CCN(C(=O)C1CC1)c1cc(-c2ccc3c(c2)n(C)c(=O)n3C2CCN(C)CC2)cc(C(=O)NCc2c(C)cc(C)[nH]c2=O)c1C`, the IC50 with KARPAS-422 amounted to 29.8 nM. For `CCN1CCC(n2c(=O)n(C)c3cc(-c4cc(C(=O)NCc5c(C)cc(C)[nH]c5=O)c(C)c(N(CC)C5CCOCC5)c4)ccc32)CC1`, in the data set on KARPAS-422, the IC50 turned out to be 23.5 nM. Same read-out and setting: under `CCN(c1cc(-c2ccc3c(c2)n(C)c(=O)n3C2CN(CC3CC3)C2)cc(C(=O)NCc2c(C)cc(C)[nH]c2=O)c1C)C1CCOCC1` stands 39.7 nM.

Regarding `CCN(c1cc(-c2ccc3c(c2)n(C)c(=O)n3C2CN(C(C)=O)C2)cc(C(=O)NCc2c(C)cc(C)[nH]c2=O)c1C)C1CCOCC1`, the IC50 with KARPAS-422 was found to be 145 nM. On the same count and under the same terms, for `CCN(c1cc(-c2ccc3c(c2)n(C)c(=O)n3C2CCN(CC(F)F)CC2)cc(C(=O)NCc2c(C)cc(C)[nH]c2=O)c1C)C1CCOCC1` the value was 50.6 nM.

What is called IC50 is the point on the concentration scale where inhibition reaches its midpoint. The term half-life denotes how long it takes for the measured level to halve.
